Entries after “also recorded” stand apart in the source; their conditions may differ. Read-outs that look alike come from different tables or passages of the source.
What was measured:
[1] = system: SMMC-7721 (human hepatocellular carcinoma); assay: cells
Protocol: (§1) To determine the cytotoxicity of garciesculentone B, its IC50 values on HepG2, SMMC-7721, MCF-7, and MDA-MB-231 cell lines are measured. […] In addition, further study is taken to test whether garciesculentone B can exert effects on cell motility. A wound healing assay using ECA109 cells is performed in this regard.
(§2) Cytotoxicity Assay. Cytotoxic activitiy of garciesculentone B were evaluated by MTT assay using SMMC-7721 (human hepatocellular carcinoma), HepG2 (human hepatocellular carcinoma), MCF-7 (human breast adenocarcinoma), and MDA-MB-231 (human breast adenocarcinoma). Paclitaxel was used as positive control. The detailed methodology for cytotoxicity assay has already been described in Xia, Z.-X.; Zhang, D.-D.; Liang, S.; Lao, Y.-Z.; Zhang, H.; Tan, H.-S.; Chen, S.-L.; Wang, X.-H.; Xu, H.-X., Bioassay-Guided Isolation of Prenylated Xanthones and Polycyclic Acylphloroglucinols from the Leaves of Garcinia nujiangensis. Journal of Natural Products 2012.

[2] = system: human esophageal carcinoma (ECA109) cells; assay: Wound healing assay; format: cell-based
Protocol: Wound healing assay. A wound healing assay was performed by using a modified procedure described previously in Jones, J. I.; Gockerman, A.; Busby, W. H., Jr.; Wright, G.; Clemmons, D. R., Insulin-like growth factor binding protein 1 stimulates cell migration and binds to the alpha 5 beta 1 integrin by means of its Arg-Gly-Asp sequence. Proc Natl Acad Sci USA 1993, 90 (22), 10553-7. Briefly, cells were plated in 24 wells plate at 70% confluence in conditioned medium. 24 hours after seeding the monolayers were wounded by scoring with a sterile plastic 20 μL micropipette tip, then rinsed several times with media to remove cell debris and then incubated in completed medium in the absence or presence of tested compounds (10 and 20 μg/mL) for various periods of time up to 36 hours. Cell migration into the wound surface was monitored by Olympus IX71 microscopy and digitally photographed.

[3] = system: HepG2 (human hepatocellular carcinoma)
Protocol: as §1, §2

[4] = system: MCF-7 (human breast adenocarcinoma); format: cell-based
Description: (§3) Cytotoxicity Assay. […] Paclitaxel was used as positive control. […] Journal of Natural Products 2012.

[5] = system: MDA-MB-231 (human breast adenocarcinoma); format: cell-based
Description: as §3

| Compound | IC50 ([1]; Homo sapiens, SMMC-7721, read-out: Cytotoxicity IC50, SMMC-7721) [µM] | IC50 [1] [µM] | Cell migration into the wound area (antimigration effect) ([2]; 10 and 20 μg/mL) | Wound closure ([2]; up to 36 hours, control wound edges indistinguishable by 36 hours) | IC50 [3] [µM] | IC50 [4] [µM] | IC50 [5] [µM] |
| --- | --- | --- | --- | --- | --- | --- | --- |
| CC(=O)O[C@H]1C(=O)[C@@]2(C)[C@H]([C@H](OC(=O)c3ccccc3)[C@]3(O)C[C@H](OC(=O)[C@H](O)[C@@H](NC(=O)c4ccccc4)c4ccccc4)C(C)=C1C3(C)C)[C@]1(OC(C)=O)CO[C@@H]1C[C@@H]2O [Palcitaxel, Paclitaxel, reference compound] | 0.0091 |  |  |  |  |  |  |
| garciesculentone B |  | 11.8 | significant delay in cells moving into the wound area; also recorded: shows antimigration effect on ECA109 cells | do not migrate into and completely close the wound | 31.4 | 23.7 | 33.9 |

— patent publication US20140194498A1, “POLYISOPRENYLATED TETRACYCLIC XANTHONE WITH ANTICANCER ACTIVITY” (Hong Kong Baptist University, priority 2013, published 2014)
